A short description of test [1]: Inhibition of NS5A in HCV genotype 3a infected in human HuH7 replicon cells expressing HCV genotype 1b chimeric replicon assessed as reduction in viral replication after 3 days by luciferase reporter gene assay. On the technique in general: A replicon is a self-replicating genome or part of one, used to study replication in cells.
Test [2] can be described thus: Inhibition of NS5A in HCV genotype 1b infected in human HuH7 replicon cells assessed as reduction in viral replication after 3 days by luciferase reporter gene assay.
A short description of test [3]: Inhibition of NS5A in HCV genotype 2a JFH-1 infected in human Huh7.5.1 cells assessed as reduction in viral replication after 3 days by luciferase reporter gene assay. On the technique in general: A reporter such as luciferase makes a cellular process visible.
Test [4] in a line: Inhibition of NS5A in HCV genotype 6a infected in human HuH7 replicon cells expressing HCV genotype 1b chimeric replicon assessed as reduction in viral replication after 3 days by luciferase reporter gene assay.
Test [5] can be described thus: Inhibition of NS5A in HCV genotype 5a infected in human HuH7 replicon cells expressing HCV genotype 1b chimeric replicon assessed as reduction in viral replication after 3 days by luciferase reporter gene assay.
Test [6] can be described thus: Inhibition of NS5A in HCV genotype 1a infected in human HuH7 replicon cells assessed as reduction in viral replication after 3 days by luciferase reporter gene assay.

On to `COC(=O)N[C@H](C(=O)N1CCC[C@H]1C(=O)Nc1ccc([C@@H]2CC[C@@H](c3ccc(NC(=O)[C@@H]4CCCN4C(=O)[C@@H](NC(=O)OC)C(C)C)cc3)N2c2ccc([Si](C)(C)C(C)(C)C)cc2)cc1)C(C)C`, for which the 50% effective concentration (EC50) in test [1] worked out at 12 pM; in test [2], 3 pM; in test [3], 1.1 pM; in test [4] it was 925 pM; in test [5] it was 1 pM; in test [6], 11 pM.
As to `COC(=O)N[C@H](C(=O)N1CCC[C@H]1C(=O)Nc1ccc([C@@H]2CC[C@@H](c3ccc(NC(=O)[C@@H]4CCCN4C(=O)[C@@H](NC(=O)OC)C(C)C)cc3)N2c2ccc(C(C)(C)C)cc2)cc1)C(C)C` [CHEBI:85183], the EC50 worked out at 86 pM in test [1]; 5 pM in test [2]; 2.6 pM in test [3]; 3390 pM in test [4]; 4 pM in test [5]; 30 pM in test [6].
On to `COC(=O)N[C@H](C(=O)N1CCC[C@H]1C(=O)Nc1ccc([C@H]2CC[C@H](c3ccc(NC(=O)[C@@H]4CCCN4C(=O)[C@@H](NC(=O)OC)C(C)C)cc3)N2c2ccc([Si](C)(C)C)cc2)cc1)C(C)C`, for which the figures for the EC50 in test [2] and in test [6] were 7 pM and 118 pM, respectively.
In the case of `CC[Si](CC)(CC)c1ccc(N2[C@@H](c3ccc(NC(=O)[C@@H]4CCCN4C(=O)[C@@H](NC(=O)OC)C(C)C)cc3)CC[C@@H]2c2ccc(NC(=O)[C@@H]3CCCN3C(=O)[C@@H](NC(=O)OC)C(C)C)cc2)cc1`, the results for the concentration giving a half-maximal response (EC50) in test [2] and in test [6] were 6 pM and 41 pM, respectively.
For `COC(=O)N[C@H](C(=O)N1CCC[C@H]1C(=O)Nc1ccc([C@@H]2CC[C@@H](c3ccc(NC(=O)[C@@H]4CCCN4C(=O)[C@@H](NC(=O)OC)C(C)C)cc3)N2c2ccc([Si](C)(C)C)cc2)cc1)C(C)C`, the EC50 in test [1] came out at 38 pM; in test [2], 4 pM; in test [3] it was 2.5 pM; in test [4], 1410 pM; in test [5], 1 pM; in test [6] it was 14 pM.
`CC[Si](CC)(CC)c1ccc(N2[C@@H](c3ccc(NC(=O)[C@@H]4CCCN4C(=O)[C@@H](NC(=O)OC)C(C)C)cc3)CC[C@H]2c2ccc(NC(=O)[C@@H]3CCCN3C(=O)[C@@H](NC(=O)OC)C(C)C)cc2)cc1`: the values for the half-maximal effective concentration (EC50) in test [2] and in test [6] were 7 pM and above 500 pM, respectively.
On to `COC(=O)N[C@H](C(=O)N1CCC[C@H]1C(=O)Nc1ccc([C@H]2CC[C@@H](c3ccc(NC(=O)[C@@H]4CCCN4C(=O)[C@@H](NC(=O)OC)C(C)C)cc3)N2c2ccc([Si](C)(C)C)cc2)cc1)C(C)C`, for which the EC50 was 8 pM in test [2] and above 500 pM in test [6].
Regarding `CC[Si](CC)(CC)c1ccc(N2[C@H](c3ccc(NC(=O)[C@@H]4CCCN4C(=O)[C@@H](NC(=O)OC)C(C)C)cc3)CC[C@H]2c2ccc(NC(=O)[C@@H]3CCCN3C(=O)[C@@H](NC(=O)OC)C(C)C)cc2)cc1`, the EC50 in test [1] was found to be 10 pM; in test [2], 3 pM; in test [4] it was 445 pM; in test [5], 1 pM; in test [6], 7 pM.

Usually EC50 stands for the concentration that produces a half-maximal response.

The values above are taken from BindingDB's records for doi:10.1016/j.ejmech.2018.02.025 (Chia Tai Tianqing Pharmaceutical Group, 2018).
